Test results: patent US20220073554A1, “LINCOSAMIDE ANTIBIOTICS AND USES THEREOF” (President and Fellows of Harvard College, priority 2017, published 2022)
Values after ≈ are worked out from the molar mass of the structure shown. Like-named read-outs stand apart in the source and are kept apart here.

Legend:
Format in all cases: cell-based
[1] = tested on: E. coli MMX TolC parent strain; test: MIC against E. coli MMX TolC parent strain; conditions: Escherichia coli
[2] = tested on: S. aureus BAA 977 iErmA; test: MIC against S. aureus BAA 977 iErmA; conditions: Staphylococcus aureus, BAA977
[3] = tested on: S. aureus Micromyx USA 300; test: MIC against S. aureus Micromyx USA 300; conditions: Staphylococcus aureus, USA300
[4] = tested on: S. pyogenes MMX 946 Macrolide-Resistant; test: MIC against S. pyogenes MMX 946 Macrolide-Resistant; conditions: Streptococcus pyogenes
[5] = tested on: S. aureus ATCC 29213; test: MIC against S. aureus ATCC 29213; conditions: Staphylococcus aureus
[6] = tested on: C. difficile BAA 1805; test: MIC against C. difficile BAA 1805; conditions: Clostridioides difficile, BAA1805
[7] = tested on: P. aeruginosa MMX 3476 Δmex; test: MIC against P. aeruginosa MMX 3476 Δmex; conditions: Pseudomonas aeruginosa
[8] = tested on: S. pyogenes ATCC 19615; test: MIC against S. pyogenes ATCC 19615; conditions: Streptococcus pyogenes, ATCC19615
[9] = tested on: E. faecalis MMX 847 Macrolide-Resistant; test: MIC against E. faecalis MMX 847 Macrolide-Resistant; conditions: Enterococcus faecalis
[10] = tested on: S. pneumoniae MMX 3031 cMefA; test: MIC against S. pneumoniae MMX 3031 cMefA; conditions: Streptococcus pneumoniae, MMX3031CMEFA
[11] = tested on: S. aureus MP-513 clinical cErm; test: MIC against S. aureus MP-513 clinical cErm; conditions: Staphylococcus aureus
[12] = tested on: S. pneumoniae ATCC 49619; test: MIC against S. pneumoniae ATCC 49619; conditions: Streptococcus pneumoniae, ATCC49619; S. pneumoniae ATCC 49619; read-out: MIC
[13] = tested on: S. pneumoniae MMX 3028 cErmB; test: MIC against S. pneumoniae MMX 3028 cErmB; conditions: Streptococcus pneumoniae, MMX3028CERMB
[14] = tested on: E. coli ATCC 15922; test: MIC against E. coli ATCC 15922; conditions: Escherichia coli, ATCC15922
[15] = tested on: P. aeruginosa MMX Mex parent strain; test: MIC against P. aeruginosa MMX Mex parent strain; conditions: Pseudomonas aeruginosa
[16] = tested on: E. coli MMX 0121 ΔTolC; test: MIC against E. coli MMX 0121 ΔTolC; conditions: Escherichia coli
[17] = tested on: S. aureus MMX 3035 cErmA; test: MIC against S. aureus MMX 3035 cErmA; conditions: Staphylococcus aureus, MMX3035CERMA
[18] = tested on: B. fragilis ATCC 25285; test: MIC against B. fragilis ATCC 25285; conditions: Bacteroides fragilis, ATCC25285
[19] = tested on: P. aeruginosa ATCC 27853; test: MIC against P. aeruginosa ATCC 27853; conditions: Pseudomonas aeruginosa, ATCC27853
[20] = tested on: E. faecalis ATCC 29212; test: MIC against E. faecalis ATCC 29212; conditions: Enterococcus faecalis
[21] = tested on: H. influenzae ATCC 49247; test: MIC against H. influenzae ATCC 49247; conditions: Haemophilus influenzae, ATCC49247
[22] = tested on: S. aureus UNT96, NRS710, MP-618 (USA100, Erythro > 8); test: microbe, parasite or virus in culture; conditions: Staphylococcus aureus
[23] = tested on: E. coli MP-9 ΔTolC; test: MIC against E. coli MP-9 ΔTolC; conditions: Escherichia coli
[24] = tested on: K. pneumoniae ATCC 10031; test: MIC against K. pneumoniae ATCC 10031; conditions: Klebsiella pneumoniae, ATCC10031
[25] = tested on: S. aureus UNT-146, MP-620, TP 506 (ermA); test: microbe, parasite or virus in culture; conditions: Staphylococcus aureus
[26] = tested on: E. faecalis UNT-047 VRE; test: microbe, parasite or virus in culture; conditions: Enterococcus faecalis
[27] = tested on: S. aureus MP-549 msr(a) USA 300; test: MIC against S. aureus MP-549 msr(a) USA 300; conditions: Staphylococcus aureus, USA300, S. aureus MP-549 msr(a) USA 300
[28] = tested on: E. coli ATCC 25922; test: MIC against E. coli ATCC 25922; conditions: Escherichia coli, ATCC25922
[29] = tested on: S. aureus UNT-120, MP-619, NR522 (USA 600, GISA); test: microbe, parasite or virus in culture; conditions: Staphylococcus aureus, USA600
[30] = S. aureus Micromyx USA 300, read-out: MIC
[31] = ATCC29213, S. aureus ATCC 29213, read-out: MIC
[32] = H. influenzae ATCC 49247, read-out: MIC

SMILES	MIC [1] [µg/mL]	MIC [2] [µg/mL]	MIC [3, 30] [µg/mL]	MIC [5, 31] [µg/mL]	MIC [7] [µg/mL]	MIC [9] [µg/mL]	MIC [10] [µg/mL]	MIC [11] [µg/mL]	MIC [12] [µg/mL]	MIC [14] [µg/mL]	MIC [15] [µg/mL]	MIC [16] [µg/mL]	MIC [17] [µg/mL]	MIC [18] [µg/mL]	MIC [19] [µg/mL]	MIC [4] [µg/mL]	MIC ([20]; ATCC29212, read-out: MIC) [µg/mL]	MIC [21, 32] [µg/mL]	MIC ([5]; ATCC29213) [µg/mL]	MIC [28] [µg/mL]	other results
CSC1O[C@H]([C@H](NC(=O)[C@H]2NC[C@@H]3CC=CCO[C@H]32)[C@H](C)Sc2ccc(-c3cncnc3)cc2)C(O)[C@@H](O)[C@H]1O (stereo partly shown) [FSA-27049]	> 64	2 (≈ 3.4 µM)	1 (≈ 1.7 µM)	1 (≈ 1.7 µM)	> 64	> 64	≤ 0.06	> 64	≤ 0.06	> 64	> 64	8 (≈ 13.6 µM)	> 64	> 64	> 64	–	–	–	–	–	MIC ([4]; S. pyogenes MMX 946 Macrolide-Resistant (MacRes), read-out: MIC): 2 µg/mL (≈ 3.4 µM); MIC ([6]; C. difficile BAA 1805, read-out: MIC): 1 µg/mL (≈ 1.7 µM); MIC ([8]; S. pyogenes ATCC 19615, read-out: MIC): ≤ 0.06 µg/mL; MIC ([13]; S. pneumoniae MMX 3028 cErmB, read-out: MIC): 39 µg/mL (≈ 66.2 µM)
CSC1O[C@H]([C@H](NC(=O)[C@H]2NC[C@@H]3CC(c4ccc(F)cc4)=CCO[C@H]32)[C@H](C)Cl)C(O)[C@@H](O)[C@H]1O (stereo partly shown) [FSA-507057]	> 64	1 (≈ 1.88 µM)	1 (≈ 1.88 µM)	2 (≈ 3.77 µM)	> 64	> 64	≤ 0.06	–	≤ 0.06	> 64	> 64	–	> 64	–	> 64	> 64	1 (≈ 1.88 µM)	–	–	–	–
CSC1O[C@H]([C@H](NC(=O)[C@H]2NC[C@@H]3C[C@@H](c4ccc(C(F)(F)F)cc4)CCO[C@H]32)[C@H](C)Cl)C(O)[C@@H](O)[C@H]1O (stereo partly shown) [FSA-509019]	–	–	0.5 (≈ 0.858 µM)	–	–	–	–	–	–	–	–	–	–	–	–	–	–	4 (≈ 6.86 µM)	–	–	MIC ([14]; E. coli ATCC 15922, read-out: MIC): > 64 µg/mL; MIC ([15]; P. aeruginosa MMX Mex parent strain, read-out: MIC): > 64 µg/mL; MIC ([19]; P. aeruginosa ATCC 27853, read-out: MIC): > 64 µg/mL
CSC1O[C@H]([C@H](NC(=O)[C@H]2NC[C@@H]3C[C@@H](O)[C@@H](O)CO[C@H]32)[C@H](C)Cl)C(O)[C@@H](O)[C@H]1O (stereo partly shown) [FSA-501076]	–	> 64	–	–	–	–	–	> 64	–	–	–	–	–	–	> 64	–	–	–	> 64	> 64	MIC [22]: > 64 µg/mL; MIC [23]: > 64 µg/mL; MIC [24]: > 64 µg/mL; MIC [25]: > 64 µg/mL; MIC [8]: > 64 µg/mL; MIC [26]: > 64 µg/mL; MIC [27]: > 64 µg/mL; MIC ([20]; ATCC29212): > 64 µg/mL; MIC [29]: > 64 µg/mL
CSC1O[C@H]([C@H](NC(=O)[C@H]2NC[C@@H]3CC(c4ccccc4)=CCO[C@H]32)[C@H](C)Cl)C(O)[C@@H](O)[C@H]1O (stereo partly shown) [FSA-507056]	> 32	1 (≈ 1.95 µM)	0.5 (≈ 0.975 µM)	1 (≈ 1.95 µM)	> 32	> 32	–	–	–	–	> 32	> 32	> 32	> 32	> 32	> 32	2 (≈ 3.9 µM)	–	–	> 32	MIC [21]: > 32 µg/mL; MIC [13]: > 32 µg/mL
CSC1O[C@H]([C@H](NC(=O)[C@H]2NC[C@@H]3C=C(c4ccccc4)CCO[C@@H]23)[C@H](C)Cl)C(O)[C@@H](O)[C@H]1O (stereo partly shown) [FSA-507031]	> 32	> 32	–	–	> 32	> 32	–	–	–	–	> 32	> 32	> 32	> 32	> 32	> 32	–	8 (≈ 15.6 µM)	> 32	> 32	MIC [3]: > 32 µg/mL; MIC [6]: > 32 µg/mL; MIC [13]: > 32 µg/mL; MIC ([20]; ATCC29212): > 32 µg/mL
